In one data set the test system is bronchoconstriction. The data set is described as follows: Einthoven assay, duration of bronchoprotection. The note with it: guinea pigs, 10 μg/mL.
Data set [1] in a line: Differential scanning calorimetry, thermal stability. The note with it: DSC, FIG. 5. Format: physicochemical. As to the method:
Differential scanning calorimetry (DSC) was performed using a TA Instruments Model Q-100 module with a Thermal Analyst controller. Data were collected and analyzed using TA Instruments Thermal Solutions software. A sample of about 1 mg was accurately weighed into an aluminum pan with lid. The sample was evaluated using a linear heating ramp of 5° C./min from ambient temperature to approximately 300° C. The DSC cell was purged with dry nitrogen during use. Representative DSC traces for samples of Form I, Form II and Form III of crystalline biphenyl-2-ylcarbamic acid 1-[2-(4-{[(R)-2-(3-formylamino-4-hydroxyphenyl)-2-hydroxyethylamino]methyl}-2,5-dimethylphenylcarbamoyl)ethyl]piperidin-4-yl ester are shown in FIGS. 4, 5 and 6, respectively.

Data set [2] is described as follows: Dynamic moisture sorption (DMS) assessment. Format: physicochemical. As to the method: A dynamic moisture sorption (DMS) assessment (also known as a moisture sorption-desorption profile) was performed for a hand ground samples of Form I, Form II and Form III of crystalline biphenyl-2-ylcarbamic acid 1-[2-(4-{[(R)-2-(3-formylamino-4-hydroxyphenyl)-2-hydroxyethylamino]methyl}-2,5-dimethylphenylcarbamoyl)-ethyl]piperidin-4-yl ester using a VTI atmospheric microbalance, SGA-100 system (VTI Corp., Hialeah, Fla. 33016). A sample size of approximately 10 mg was used and the humidity was set at the ambient value at the start of the analysis. A typical DMS analysis consisted of three scans: ambient to 2% relative humidity (RH), 2% RH to 90% RH, 90% RH to 5% RH at a scan rate of 5% RH/step. The mass was measured every two minutes and the RH was changed to the next value (±5% RH) when the mass of the sample was stable to within 0.01% for 5 consecutive points. Representative DMS traces for Form I, Form II and Form III are shown in FIGS. 10, 11 and 12, respectively.

Description for bronchoconstriction: The magnitude of bronchoprotection at different time-points after inhalation of the test compound was used to estimate the pharmacodynamic half-life (PD T1/2). PD T1/2 was determined using a non-linear regression fit using a one-phase exponential decay equation (GraphPad Prism, Version 4.00): Y=Span*exp(−K*X)+Plateau; Starts at Span+Plateau and decays to Plateau with a rate constant K. The PD T1/2=0.69/K. Plateau was constrained to 0.

For the molecule `C[N+]1(C)[C@@H]2C[C@@H](OC(=O)C(O)(c3cccs3)c3cccs3)C[C@H]1[C@@H]1O[C@@H]12` [tiotropium], in the data set on bronchoconstriction, the “duration of significant bronchoprotection” value is given as “greater than 72 hours”.
`Cc1cc(NC(=O)CCN2CCC(OC(=O)Nc3ccccc3-c3ccccc3)CC2)c(C)cc1CNC[C@H](O)c1ccc(O)c(NC=O)c1` [Form II, Biphenyl-2-ylcarbamic acid 1-[2-(4-{[(R)-2-(3-Formylamino-4-hydroxyphenyl)-2-hydroxyethylamino]methyl}-2,5-dimethylphenylcarbamoyl)ethyl]piperidin-4-yl Ester]: the thermal stability result in data set [1] was “excellent thermal stability”. In data set [2] (DMS, 2% RH to 90% RH, reversible sorption/desorption profile), the hygroscopicity was less than 5%. Further, the weight gain result in data set [2] (humidity range of 40% RH to 75% RH, DMS trace FIG. 11) is “about 0.3 weight %”; in data set [2] (humidity range of 40% relative humidity to 75% relative humidity) it was “less than 0.5%”. The deliquescence result in data set [2] (moisture sorption/desorption, exposure to atmospheric moisture) is listed as “not deliquescent”.

These data come from patent US7880010B2, “Crystalline forms of a dimethylphenyl compound” (Theravance, Inc., priority 2006, dated 2011).
